In article PMC5786306, “An AKAP-Lbc-RhoA interaction inhibitor promotes the translocation of aquaporin-2 to the plasma membrane of renal collecting duct principal cells” (PLoS ONE, 2018):
“Also recorded” adds a separate entry of the source. Read-outs that look alike come from different tables or passages of the source. One block for each molecule: values may come before it.

How the values were obtained:
Nephelometric solubility = format: physicochemical; conditions: maximal solubility in DMEM + 10 % FCS
Protocol: Solubility of Scaff10 derivatives was assessed nephelometrically. Scaff10 derivatives are moderately to poorly soluble in aqueous solutions due to their large number of aromatic rings having lipophilic character. Details about NMR, LC/MS and HPLC characterization steps are given in the Supplemental Information.
Suppl. Tab. 3: Overview of all 55 Scaff10 derivatives.Structures labeld with 1 were commercially obtained. MW = molecular weight. logP = calculated partition coefficient (using […]
Solubility was assessed nephelometrically in DMEM + 10 % FCS + Scaff10 derivative with either 0.3 or 2 % DMSO
final concentration; values in µM indicate maximal solubility of the compound under the respective condition. Yield in % indicates total yield of the last step of chemical synthesis
for each of Scaff10 derivatives. n.d. = not determined. n.i. = not indicated.
Scaff10 MW Number of exp. 2 % DMSO 0.3 % DMSO Scaff10 Yield
Structure log P Disruption of the PPI IC50 [µM]
derivative [g/mol] in dupl. [µM] [µM] class [%]

647-RhoA = target: T1, 647-RhoA (Homo sapiens, UniProt P61586); experiment: Microscale thermophoresis (MST) with 647-RhoA; format: binding; conditions: for Kd: mean ± SEM
T1 construct: made in house
Protocol: (§1) The final concentration of GFP-AKAP-Lbc/DHPH was set to 150 nM, 95% LED and 80% MST laser power. […] The samples were incubated in the dark for 1 h incubation at room temperature, and measured with 30 sec laser-on and 5 sec laser-off time at a Monolith NT.115 device (NanoTemper). Measured fluorescence (F) was normalised (Fhot/Fcold = Fsteady state/Finitial state, Fig 3). Values of thermophoresis + T-jump were related to average of each measurement row (16 capillaries). Final values are given as ‰.
(§2) Fig 4 The Scaff10 derivative Scaff10-8 binds to RhoA but not to the DHPH domain of AKAP-Lbc. (A-D) Microscale thermophoresis (MST) takes advantage of the phenomenon of directed movement of particles in a temperature gradient. Binding events lead to changes in the hydration shell of biomolecules and a relative change of movement of the molecular complex along a temperature gradient. Using such changes, binding affinities can be determined. MST assays were carried out with (A) the recombinant DHPH domain of AKAP-Lbc fused with GFP and RhoA as a ligand and (B) fluorescent 647-RhoA and the His-tagged AKAP-Lbc/DHPH domain as a ligand. (C) MST assays for the analysis of the binding of Scaff10-8 to 647-RhoA. Upper panels: The concentration of fluorescent 647-RhoA remained constant and Scaff10-8 (left) and Scaff10-7 as a negative control (right) were titrated in increasing concentrations. Lower panels: Values of fluorescence corresponding to upper panels. (D) MST assay showing no binding of Scaff10-8 or Scaff10-7 to GFP-DHPH. Upper panels: The concentration of fluorescent GFP-AKAP-Lbc/DHPH remained constant and Scaff10-8 (left) and Scaff10-7 (right) were titrated in increasing concentrations. Lower panels: Values of fluorescence corresponding to upper panels. […] F norm = normalized fluorescence (fluorescence steady state/fluorescence initial state) indicated in ‰. n = 3–5. Mean ± SEM. […] The ligand protein named in each panel heading is used as the substance label, and it is uncertain whether these count as substances.

[1] = target: T2, interaction of AKAP-Lbc/DHPH and RhoA (Homo sapiens, UniProt P61586); experiment: Homogeneous time-resolved fluorescence (HTRF) assay; format: binding; conditions: HTRF; for inhibitory effect on the AKAP-Lbc/DHPH-RhoA interaction: result in words; for IC50: Table 1, '-' = no IC50, inactive (n.d. is used separately in S3 Table)
T2 construct: His6-AKAP-Lbc/DHPH (aa 1972–2342 of human AKAP-Lbc; NP_006729.4); made in house
Source text: Fig 2 The small molecule Scaff10-8 inhibits the interaction of the DH domain of AKAP-Lbc and RhoA. (A). Principle of homogenous time-resolved fluorescence (HTRF) assay. Recombinant His-AKAP-Lbc/DHPH and GST-RhoA were generated. The tags are recognized by specific antibodies coupled to fluorescent dyes. When the two proteins interact, donor and acceptor dyes of the antibodies are in close proximity, energy transfer occurs upon excitation at 320 nm and a FRET signal is detected (665 nm). If a compound disrupts the interaction of the DHPH domain and RhoA, the proximity of the fluorescent moieties remains insufficient for a FRET signal to occur. […] As expected, excess untagged Rho decreases the binding between GST-RhoA and His-AKAP-Lbc/DHPH in a dose-dependent manner (lower left panel). […] (C) The influence of Scaff10-8 on the interaction of RhoA with the recombinant DH domain of AKAP-Lbc in the absence of the PH domain was determined by Alpha screen. […] The IC50 value is indicated.
The assay was essentially carried out as described. Scaff10 derivatives were added to His6-AKAP-Lbc/DHPH protein (250 nM final concentration) in HTRF buffer (PBS; 4 mM MgCl2; 0.05% Tween 20) in 384 well plates (Proxiplate-384 Plus, white, #6008289; Perkin Elmer LAS, Rodgau, Germany). Concentrations of Scaff10 derivatives ranged between 1.56–200 μM (2% DMSO final concentration); HTRF buffer with 2% DMSO served as a control. GST-RhoA (30 nM final concentration) in HTRF buffer and anti-GST antibody coupled to terbium (donor) and anti-His6-tag antibody coupled to XL665 (acceptor) were added to all wells (final antibody concentration: 2 μg/ml). After 1 h incubation at room temperature in the dark, FRET signals were recorded at 620 and 665 nm using a Genios Pro plate reader (Tecan Austria GmbH, Grödig, AT) and the ratios of […] to 620 nm were calculated. Wells containing no compound were set to 100% interaction of AKAP-Lbc/DHPH with RhoA, wells containing GST-RhoA only (without His6-AKAP-Lbc/DHPH) were set to 0% interaction. To exclude any interference of the tags and/or antibodies with Scaff10 derivatives, a His6-GST fusion protein replaced the two tagged proteins in a control assay. Wells containing His6-GST fusion protein were set to 100% interaction of His6-GST, wells containing no fusion protein were set to 0% interaction.

[2] = comparison value, no reference given; cited from earlier work
GFP-AKAP-Lbc/DHPH = target: T3, GFP-AKAP-Lbc/DHPH (Homo sapiens, UniProt Q12802); experiment: Microscale thermophoresis (MST) with GFP-AKAP-Lbc/DHPH; format: binding; conditions: read-out: KD for binding to GFP-AKAP-Lbc/DHPH
T3 construct: His6-AKAP-Lbc/DHPH (aa 1972–2342 of human AKAP-Lbc; NP_006729.4); made in house; host or cells: HEK293-EBNA cells (transient transfection, pTT5)
T3 sequence (Q12802 1972-2342 isoform Q12802-2): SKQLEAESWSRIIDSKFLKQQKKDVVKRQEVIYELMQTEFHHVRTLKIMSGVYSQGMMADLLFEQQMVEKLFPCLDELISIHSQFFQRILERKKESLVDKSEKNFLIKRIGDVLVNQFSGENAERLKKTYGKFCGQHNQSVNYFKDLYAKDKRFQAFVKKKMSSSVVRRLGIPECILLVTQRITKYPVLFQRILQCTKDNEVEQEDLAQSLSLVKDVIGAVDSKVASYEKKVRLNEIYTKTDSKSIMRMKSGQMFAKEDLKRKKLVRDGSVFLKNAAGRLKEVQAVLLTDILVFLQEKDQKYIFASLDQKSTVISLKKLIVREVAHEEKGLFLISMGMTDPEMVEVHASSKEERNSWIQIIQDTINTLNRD
Protocol: as §1, §2

[3] = target: T4, interaction of the DH domain of AKAP-Lbc and RhoA (Homo sapiens, UniProt P61586); experiment: Alpha screen assay; format: binding; conditions: result in words
T4 construct: The proteins used were N-terminally His6-tagged AKAP-Lbc-DH domain
Protocol: Assays were performed according to the manufacturer’s protocol (PerkinElmer) with minor modifications. All reagents were diluted in buffer containing 25 mM Hepes, pH 7.4, 100 mM NaCl, 0.1% bovine serum albumin, 0.05% CHAPS and 50 μM GDP and allowed to equilibrate to room temperature before addition to plates. […] The proteins used were N-terminally His6-tagged AKAP-Lbc-DH domain and C-terminally biotinylated RhoA. […] 8 μL of assay buffer containing donor and acceptor beads at 1:400 dilution was then added, the plate was incubated in the dark for 60 min and then read on a PheraStar FS plate reader (BMG Labtech, Germany) using an AlphaScreen^TM 680 excitation/570 emission filter set.
11.6 μL of a solution containing 100 nM RhoA and 200 nM AKAP13 in assay buffer was added and incubated with the compounds for 30 min at RT in foil-sealed plates. 8 μL of assay buffer containing donor and acceptor beads at 1:400 dilution was added. The plate was incubated in the dark for 60 min and then read on a PheraStar FS plate reader.

[4] = system: AQP2 localization in MCD4 cells; experiment: Immunofluorescence microscopy of AQP2 in MCD4 cells; format: cell-based, mouse; conditions: 30 μM
[5] = DMEM + 10 % FCS, plasma or biological fluid, kinetic from dmso stock, 0.3 % DMSO final, read-out: Solubility 0.3 % DMSO
[6] = DMEM + 10 % FCS, plasma or biological fluid, kinetic from dmso stock, 2 % DMSO final, read-out: Solubility 2 % DMSO

T2 sequence (P61586 whole entry, the tested form may be a part): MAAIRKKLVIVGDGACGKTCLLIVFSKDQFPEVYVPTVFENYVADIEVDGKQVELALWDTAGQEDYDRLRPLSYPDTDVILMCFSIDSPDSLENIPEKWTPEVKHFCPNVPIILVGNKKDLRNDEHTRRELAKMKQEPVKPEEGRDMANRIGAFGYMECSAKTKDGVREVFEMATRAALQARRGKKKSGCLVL
T1 sequence (P61586 whole entry): as the sequence (P61586 whole entry, the tested form may be a part) above
T4 sequence (P61586 whole entry, the tested form may be a part): as above

solubility (Nephelometric solubility; 0.3 % DMSO final, read-out: Solubility 0.3 % DMSO): 75 µM
solubility (Nephelometric solubility; 2 % DMSO final, read-out: Solubility 2 % DMSO): 30 µM
binding to 647-RhoA (647-RhoA; result in words): did not bind
inhibitory effect on the AKAP-Lbc/DHPH-RhoA interaction [1]: complete loss of the inhibitory effect
IC50 ([1]; read-out: IC50 ± SEM): > 200 µM
Molecule: COC(=O)CCc1c(C)c2cc3c(-c4ccc(OC)cc4)coc3cc2oc1=O [Scaff10-48]

Molecule: O=C(O)/C=C/c1ccccc1 [cinnamic acid]
pKa [2]: 4.44

Kd (GFP-AKAP-Lbc/DHPH): 42 ± 5 µM
Molecule: untagged RhoA: recombinant untagged RhoA protein used as competitor or ligand

Molecule: CC(=O)NO [acetohydroxamic acid]
pKa [2]: 8.7

solubility (Nephelometric solubility; [5]): > 150 µM
solubility (Nephelometric solubility; [6]): 100 µM
Kd (647-RhoA; KD for binding to 647-RhoA, n = 3–5): 19.5 ± 4.1 µM
IC50 ([1]; IC50 ± SEM): 36.7 ± 3.3 µM
Molecule: Cc1c(CCC(=O)O)c(=O)oc2cc3occ(-c4ccc(Oc5ccccc5)cc4)c3cc12 [Scaff10-38]

solubility (Nephelometric solubility; [5]): 40 µM
solubility (Nephelometric solubility; [6]): 30 µM
inhibitory effect in Alpha screen [3]: without inhibitory effects
IC50 ([1]; read-out: IC50 ± SEM): > 200 µM
Molecule: CCOC(=O)CCc1c(C)c2ccc(OCc3ccc(OC)cc3)cc2oc1=O [Scaff10-59]
localization of AQP2 in MCD4 cells [4]: did not affect the location of AQP2
inhibitory effect on the AKAP-Lbc/DHPH-RhoA interaction [1]: did not; also recorded: without inhibitory effects

Kd (647-RhoA; n = 3–5, read-out: KD for binding to 647-RhoA): 14 ± 4 µM
B1: His-AKAP-Lbc/DHPH: recombinant His-tagged DHPH domain of AKAP-Lbc (protein)
chain: SKQLEAESWSRIIDSKFLKQQKKDVVKRQEVIYELMQTEFHHVRTLKIMSGVYSQGMMADLLFEQQMVEKLFPCLDELISIHSQFFQRILERKKESLVDKSEKNFLIKRIGDVLVNQFSGENAERLKKTYGKFCGQHNQSVNYFKDLYAKDKRFQAFVKKKMSSSVVRRLGIPECILLVTQRITKYPVLFQRILQCTKDNEVEQEDLAQSLSLVKDVIGAVDSKVASYEKKVRLNEIYTKTDSKSIMRMKSGQMFAKEDLKRKKLVRDGSVFLKNAAGRLKEVQAVLLTDILVFLQEKDQKYIFASLDQKSTVISLKKLIVREVAHEEKGLFLISMGMTDPEMVEVHASSKEERNSWIQIIQDTINTLNRD
modifications: left off: His6, end not stated, kept
